In patent publication US20220062147A1, “Skin Care Formulation for Treatment of Cellulite” (BOTTLED SCIENCE LIMITED, priority 2020, published 2022):

System: subjects with cellulite
Assay: Superoxide dismutase administered to subjects with cellulite; subcutaneous fat measured after 90 days
Format: in vivo, human
Source text: Similarly, there was a 23% reduction in subcutaneous fat compared with the placebo after 90 days at the femoral fold.

superoxide dismutase
reduction in subcutaneous fat compared with the placebo at the femoral fold (after 90 days, femoral fold, vs placebo): 23%
reduction in subcutaneous fat compared with the placebo at the gluteal fold (after 90 days, gluteal fold, vs placebo): 28%
subcutaneous fat at the femoral fold (FIG. 1, right-hand chart) (clinical trials, femoral fold, result in words): significantly reduces
subcutaneous fat at the gluteal fold (FIG. 1, left-hand chart) (clinical trials, gluteal fold, result in words): significantly reduces
